This note sets out measurements from patent publication US7927634B2, “Compositions and methods for treating angiogenesis-related diseases, wounds and cosmetic use of components of Angelica sinensis, and methods of preparation thereof” (Sunny Biodiscovery, Inc., priority 2004, dated 2011).

Experiment [1] relates to full thickness excisional wounds in genetically diabetic mice. Briefly: Wound closure in genetically diabetic mice. It counts as in vivo, mouse. The following applies: for Becaplermin (% closure): median, becaplermin 5 ug/wound in CMC gel, n = 6; for Stimulation by becaplermin relative to Control (control = 1): ratio of median closure, becaplermin 5 ug/wound. The text has this:
We have chosen to use the genetically diabetic mice (13 week old female BKS Cg-m +/+ Lepr(db), stock # 642, Jackson Labs) because it is an optimal model reflecting the impaired wound healing in a segment of the population particularly vulnerable to chronic wounds—the diabetic patients. This genetically diabetic mouse model is well established as documented by over 50 publications (for example see Tsuboi et al., 1992). Many companies have also used it as a standard pre-clinical model, including Johnson & Johnson, which included it in the pre-clinical data package submitted to FDA as part of their IND application for becaplermin. […]
Twelve mice were divided in 2 groups and 8 mm (diameter) full thickness excisional wounds were performed under anesthesia on each side of the animal with a punch biopsy tool and covered by sterile gauze (occlusive dressings were not used as they considerably delay wound healing, according to the experience of the Principal Inventor and to the published reports (Lasa et al., 1993). The number of animals per group was based on the previous publications with this model; Jacobi et al., 2002). In Group 1 (the experimental treatment group), one wound on each animal was treated by 50 ul of “high” concentration of SBD.4 (10 mg per wound) and the other one by 50 ul of “low” concentration of SBD.4 (2 mg per wound). In Group 2 (negative control), both wounds were treated by PBS (phosphate buffered saline). Treatments were applied on the first day and every second day thereafter. Wound surface were measured every second day. Wound closure was determined by the following formula: percent closure={(area on day 0−open area)/area on day 0}×100. Wounds were considered closed if moist granulation tissue was no longer apparent, and the wound appeared covered with new epithelium.
Twelve mice were divided in two groups and two wounds per mouse were effectuated as in Example 5. In order to exclude the possibility of mouse-to-mouse variability in wound healing, in this experiment every mouse was treated by the test sample on one wound and by PBS (negative control) on another wound. Thus, one group of 6 mice was treated with 50 ul of SBD.4 (2 mg/wound) on one wound, and by 50 ul of PBS on the other wound, while the second group of 6 mice was treated with becaplermin (positive control; 5 ug in 50 ul CMC—carboxymethylcellulose—gel) on one and PBS on another wound. The concentration of becaplermin was based on the dose used by Johnson & Johnson in their pre-clinical studies (2) and on published studies with PDGF-B, in the db/db model (Greenhalgh et al., 1990).
Treatments were applied on the first day and every second day thereafter. Wound surface were measured every second day. Wound closure for each wound was determined by the formula: percent closure={(area on day 0−open area)/area on day 0}×100. Wounds were considered closed if moist granulation tissue was no longer apparent, and the wound appeared covered with new epithelium. The dynamics of wound closure for the 2 groups is plotted on FIG. 6 (means) and Table II (medians).

Experiment [2] concerns full thickness wounds in human skin graft on SCID mice. Briefly: Wound closure in human skin/SCID mouse chimera model. The following applies: closed/total animals, ointment every two days, SBD.4 (HPLC-purified) in 2% CMC, becaplermin as Regranex. It counts as in vivo, human skin grafted on SCID mice. From the text: Human skin graft in severe combined immunodeficient (SCID) mice is a powerful model for evaluating the effect of wound-healing drug-candidates on full-thickness wounds (Juhasz et al., 1993). The wound model in human skin/SCID chimera features normal migration of neutrophils and macrophages to the wound bed, as well as normal expression of growth factors associated with wound-healing, and therefore provides a good approximation of human dermal wound-healing process (Matsumoto et al., 1997). The disadvantage of this model is that it is delicate to handle and time-consuming. The donor skin must be immediately placed on ice and taken to the lab, where a 10-hour grafting procedure follows. We used surgical waste skin obtained under informed consent from a patient undergoing abdominoplasty.
Skin was defatted (if it is not well defatted, the remaining adipose tissue easily undergoes necrosis, which interferes with graft taking. But on the other side, removing the underlying fat tissue too slowly or too zealously can also damage the skin and compromise the graft), and grafted (2.5×2.5 cm) on 15 SCID mice (Charles River Labs), using 10-12 stitches per graft. Here, the challenge is to suture the thick human skin with the much thinner rodent tissue.
After 6 weeks, when the graft anastomosed with the murine skin 8 mm (diameter) full thickness wounds were excised in the human skin. Mice received treatment (ointment every two days) of either becaplermin (Regranex, positive control), 2% carboxymethylcellulose (CMC, negative control) or SBD.4 in 2% CMC on the day of wounding and every second day thereafter. Initial wound closure (defined by the coverage of the base of the wound with bridging granular tissue and new epithelium) was assessed every 3 days.

The subject of another experiment is bovine endothelial cells. Briefly: Tridimensional tube formation assay, in vitro. It counts as cell-based. As to conditions: bFGF positive control, 15 ng/ml or 10 ng/ml; 2-5 weeks; FIG. 3C. Here is the method:
FIG. 3. Tridimensional tube formation assay, in vitro. A: Capillary endothelial cells form a monolayer in the absence of a remodeling stimulus. B: SBD.4 (5 μg/ml, purified by HPLC) induces remodeling of the monolayer that culminates in a tridimensional network of capillary structures. […]
In this model, capillary-like structures are induced by plating bovine endothelial cells (about 8000 cells per well) in a 96 well tissue culture-treated plate (Costar) in DMEM supplemented with 5% calf serum (Hyclone, Logan, Utah), with or without an endothelial cell stimulatory growth factor. […] Cells grown without such factor form a monolayer (FIG. 3A).

On to “Becaplermin: becaplermin (Regranex, Johnson & Johnson), positive control for wound healing”, for which the “wound closure versus PBS” value in experiment [1] (Example 6, becaplermin 5 ug in 50 ul CMC gel per wound, FIG. 6 means, one-way ANOVA) is on record as “not meaningfully different from the control”. In addition, the “Becaplermin (% closure)” value in experiment [1] (Example 6, day 1) stood at 0.0%; in experiment [1] (Example 6, day 3), 1.7%; in experiment [1] (Example 6, day 5) it was 11.9%; in experiment [1] (Example 6, day 7), 41.2%; in experiment [1] (Example 6, day 9) it was 65.8%; in experiment [1] (Example 6, day 11) it was 86.7%. Besides, the “Stimulation by becaplermin relative to Control (control = 1)” value is on record as 1.1 in experiment [1] (day 3); 0.4 in experiment [1] (day 5); 1.1 in experiment [1] (day 7); 1.3 in experiment [1] (day 9); 1.3 in experiment [1] (day 11). Moreover, the “# animals showing initial wound closure” value in experiment [2] (Day 3) is on record as 0/5; in experiment [2] (Day 6), 1/5; in experiment [2] (Day 9), 2/4; in experiment [2] (Day 12), 4/4; in experiment [2] (Day 16) it was 4/4.

With “bFGF: basic fibroblast growth factor, potent angiogenesis stimulator used as positive control”, in the experiment on bovine endothelial cells, the “induction of capillary-like structures (remodeling response)” value was “form capillary-like structures”.
